According to article PMC11073699, “Odorant receptors for floral- and plant-derived volatiles in the yellow fever mosquito, Aedes aegypti (Diptera: Culicidae)” (PLOS ONE, 2024):
Values joined by “and” are separate entries in the source; they are usually repeats but may differ in a detail not shown here. Equal entries are not always repeated.

Key:
Type in all cases: cell-based
AaegOR31 = target: T1, AaegOR31 (Aedes aegypti, UniProt Q16JU0); test: Two-electrode voltage clamp of Xenopus laevis oocytes expressing AaegOR31/Orco (blends, unitary compounds, concentration-response); details: AaegOR31, compounds of blend Alcohols 1
T1 sequence (Q16JU0 1-381): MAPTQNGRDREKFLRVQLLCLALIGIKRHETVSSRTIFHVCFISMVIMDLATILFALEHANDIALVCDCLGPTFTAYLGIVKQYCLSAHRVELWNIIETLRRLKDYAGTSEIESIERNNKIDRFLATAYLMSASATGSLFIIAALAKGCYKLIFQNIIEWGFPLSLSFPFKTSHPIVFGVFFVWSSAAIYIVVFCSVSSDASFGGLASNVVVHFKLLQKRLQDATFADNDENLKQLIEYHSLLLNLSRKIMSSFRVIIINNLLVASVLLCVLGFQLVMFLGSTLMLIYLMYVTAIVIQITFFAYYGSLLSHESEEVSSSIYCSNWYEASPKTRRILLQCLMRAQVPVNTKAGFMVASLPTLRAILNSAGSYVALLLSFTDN
T1 sequence (Q178U6 1-478 partner): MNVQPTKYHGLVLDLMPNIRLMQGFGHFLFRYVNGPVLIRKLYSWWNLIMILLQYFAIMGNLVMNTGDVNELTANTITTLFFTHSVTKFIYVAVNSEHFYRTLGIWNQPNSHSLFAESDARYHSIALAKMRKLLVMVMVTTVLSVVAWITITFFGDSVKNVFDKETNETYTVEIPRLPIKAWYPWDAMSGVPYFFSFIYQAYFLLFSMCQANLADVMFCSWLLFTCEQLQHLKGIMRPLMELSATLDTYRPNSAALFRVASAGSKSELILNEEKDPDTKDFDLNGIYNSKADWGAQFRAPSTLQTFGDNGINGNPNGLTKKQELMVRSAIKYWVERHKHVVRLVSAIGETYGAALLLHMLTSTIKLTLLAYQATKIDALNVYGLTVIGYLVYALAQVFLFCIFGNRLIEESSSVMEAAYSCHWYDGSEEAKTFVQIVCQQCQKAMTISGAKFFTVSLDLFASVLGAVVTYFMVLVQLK
Text: (§1) The coding regions of ten AaegOR genes of interest (S3 File) and AaegOrco were synthesized by Twist Bioscience (San Francisco, CA, USA) and cloned into the pENTR plasmid. The Gateway LR directional cloning system (Invitrogen Corp., Carlsbad, CA, USA) was utilized to subclone AaegOR coding regions into the pSP64t-RFA oocyte expression plasmid. Plasmids were purified using the GeneJet Plasmid Miniprep Kit (ThermoFisher Scientific, Waltham, MA, USA). Purified plasmids were sequenced in both directions to confirm coding regions.
(§2) Chemical compounds (S6 File) used in the deorphanization of AaegORs were purchased from Acros Organics (Morris, NJ, USA), Alfa Aesar (Ward Hill, MA, USA), and ThermoFisher Scientific (Waltham, MA, USA) at the highest purity available. Compounds were stored as 1M stocks in 100% DMSO. Serial dilutions of each compound were prepared in 10% DMSO and blended by chemical class.
(§3) pSP64t-RFA: AaegOR clones were linearized using Xbal, and cRNAs were synthesized using the mMESSAGE mMACHINE ® SP6 kit (Life Technologies, Carlsbad, CA, USA). Xenopus laevis stage V-VII oocytes purchased from Xenopus1 (Dexter, MI, USA) were stored at 18°C in Incubation medium (ND96 96 with 5% dialyzed horse serum, 50μg/mL gentamycin, 100μg/mL streptomycin, 100μg/mL penicillin, and 550μg/mL sodium pyruvate). 30nL of cRNA was injected into multiple oocytes using a microinjection syringe pump (World Precision Instruments, Sarasota, FL, USA) maintained at 18°C for 48–72 hrs. Odorant blends were perfused across individual oocytes for 10–15 seconds, held at a resting membrane potential of -80 mV using an OC-725C oocyte clamp (Warner Instruments, LLC, Hamden, CT, USA). Induced currents were measured indirectly using the two-electrode voltage clamp technique (TEVC). Following each stimulus, currents were allowed to return to baseline before further stimulation. Data was captured using the Digidata 1550 B digitizer and PClamp10 software (Molecular Devices, San Jose, CA, USA). Concentration-response curves were generated by perfusing unitary odorants over oocytes at increasing concentrations from [10^-3M] to [10^-9M]. Data were analyzed using GraphPad Prism 8 (GraphPad Software Inc., La Jolla, CA, USA). At least two biological replicates were conducted at each concentration and for each compound. Data for at least seven oocytes responding to each compound was analyzed (S7 File).

AaegOR13 = target: T2, AaegOR13 (Aedes aegypti, UniProt Q16Z13); test: Two-electrode voltage clamp of Xenopus laevis oocytes expressing AaegOR13/Orco (blends, unitary compounds, concentration-response); details: unitary compounds
T2 sequence (Q16Z13 1-389): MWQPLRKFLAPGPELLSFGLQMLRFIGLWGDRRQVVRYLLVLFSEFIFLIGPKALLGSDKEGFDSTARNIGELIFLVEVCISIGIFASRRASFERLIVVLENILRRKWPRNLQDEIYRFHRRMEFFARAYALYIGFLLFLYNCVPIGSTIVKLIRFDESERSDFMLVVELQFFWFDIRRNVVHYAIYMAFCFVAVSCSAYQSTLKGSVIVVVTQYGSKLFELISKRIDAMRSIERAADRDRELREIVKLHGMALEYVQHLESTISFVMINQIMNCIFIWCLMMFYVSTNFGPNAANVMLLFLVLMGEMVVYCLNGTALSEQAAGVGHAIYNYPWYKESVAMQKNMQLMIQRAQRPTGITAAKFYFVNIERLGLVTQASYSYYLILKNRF
T2 sequence (Q178U6 1-478 partner): T1 sequence (Q178U6 1-478 partner)
Text: as §1, §2, §3

AaegOR11 = target: T3, AaegOR11 (Aedes aegypti, UniProt Q16PN4); test: Two-electrode voltage clamp of Xenopus laevis oocytes expressing AaegOR11/Orco (blends, unitary compounds, concentration-response); details: for Normalized response, Average, unitary compounds of blend Terpenes 3: average over oocytes (9; fenchones 6); for Normalized response, unitary compounds of blend Terpenes 3: individual oocytes, normalized to cis-Decahydro-1-napthol = 100; for Raw data (Responses in nA), unitary compounds of blend Terpenes 3: individual oocytes 1-9 (replicates)
T3 sequence (Q16PN4 1-420): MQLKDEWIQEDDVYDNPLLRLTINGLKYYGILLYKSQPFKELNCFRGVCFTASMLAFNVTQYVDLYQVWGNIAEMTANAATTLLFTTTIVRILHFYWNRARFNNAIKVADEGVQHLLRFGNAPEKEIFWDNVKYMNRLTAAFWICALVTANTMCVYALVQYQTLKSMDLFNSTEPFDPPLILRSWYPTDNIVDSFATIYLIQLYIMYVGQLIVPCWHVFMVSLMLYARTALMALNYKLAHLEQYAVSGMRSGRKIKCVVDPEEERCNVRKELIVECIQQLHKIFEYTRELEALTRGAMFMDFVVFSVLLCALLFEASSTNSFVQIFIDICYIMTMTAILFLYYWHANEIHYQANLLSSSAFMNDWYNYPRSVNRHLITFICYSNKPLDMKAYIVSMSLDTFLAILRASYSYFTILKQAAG
T3 sequence (Q178U6 1-478 partner): T1 sequence (Q178U6 1-478 partner)
Text: as §1, §2, §3

[1] = individual oocytes (Oocyte 1-8)

SMILES	Raw Data (Responses in nA), Alcohols 1 unitary compounds (AaegOR31; [1])	Normalized response, Average, unitary compounds of blend Terpenes 3 (AaegOR11)	Normalized response, unitary compounds of blend Terpenes 3 (AaegOR11)	also measured
CC1CCC(C(C)C)C(O)C1 (racemic) [DL-menthol]	5.0 nA (2×) and 0.0 nA (6×)			Raw data (Responses in nA), unitary compounds of Indoles 1, Alcohols 1, Alcohols 3 (AaegOR13; individual oocytes 1-7): 0.0 nA (4×) and 30.0 nA and 10.0 nA and 5.0 nA
CC1(C)C(=O)[C@@]2(C)CCC1C2 (single isomer, unassigned; (+)) [(+) Fenchone]		36.7	40.0 and 50.0 (2×) and 30.0 and 25.0 (2×)	Raw data (Responses in nA), unitary compounds, additional oocytes (AaegOR11; six further oocytes in columns without head (fenchone comparison with cis-Decahydro-1-napthol)): 10 nA
CC1(C)C(=O)[C@]2(C)CCC1C2 (single isomer, unassigned; (-)) [(-) Fenchone]		23.3	20.0 and 25.0 (2×) and 10.0 (2×) and 50.0	
CC(C)O [2-propanol]	10.0 nA and 20.0 nA and 15.0 nA and 0.0 nA (5×)			Normalized response, Average, Alcohols 1 unitary compounds (AaegOR31; average of 8 oocytes): 10.7; Normalized response, Alcohols 1 unitary compounds (AaegOR31; individual oocytes (Oocyte 1-8), normalized to the strongest compound per oocyte): 5.9 and 50.0 and 30.0 and 0.0 (5×); Normalized response, unitary compounds, Average (AaegOR13; average of oocytes 1-7): 0.0; Raw data (Responses in nA), unitary compounds of Indoles 1, Alcohols 1, Alcohols 3 (AaegOR13; individual oocytes 1-7): 0.0 nA; Normalized response, unitary compounds of Indoles 1, Alcohols 1, Alcohols 3 (AaegOR13; normalized per oocyte, individual oocytes 1-7): 0.0
CC(C)(C)c1ccc(O)cc1 [4-tert butylphenol]	0.0 nA (7×) and 10.0 nA			
CC1(C)[C@H]2CC[C@]1(C)[C@H](O)C2 [(-)-Borneol]				Raw data (Responses in nA), unitary compounds of blend Terpenes 3 (AaegOR11): 0 nA
CCCCC/C=C\C=C\C(=O)OCC [Ethyl-2-trans-4-cis-decadienoate]		0.0	0.0	Raw data (Responses in nA), unitary compounds of blend Terpenes 3 (AaegOR11): 0 nA
